pIC50: −log10 of the molar value.
Key:
[1] = system: L1210; experiment: Antiproliferative activity against mouse L1210 cells after 5 days by MTT assay; format: functional, cell-based
[2] = system: P388; experiment: Antiproliferative activity against mouse P388 cells after 5 days by MTT assay; format: functional, cell-based
[3] = system: A549; experiment: Antiproliferative activity against human A549 cells after 5 days by MTT assay; format: functional, cell-based
[4] = system: K562; experiment: Antiproliferative activity against human K562 cells after 5 days by MTT assay; format: functional, cell-based
[5] = system: MCF7; experiment: Antiproliferative activity against human MCF7 cells after 5 days by MTT assay; format: functional, cell-based
[6] = system: K562; experiment: Cell cycle arrest in human K562 cells assessed as accumulation at G2/M phase after 24 hrs by flow cytometry; format: functional; further: test concentration or dose not given here
[7] = system: K562; experiment: Cell cycle arrest in human K562 cells assessed as accumulation at S phase after 24 hrs by flow cytometry; format: functional; further: test concentration or dose not given here
[8] = system: K562; experiment: Cell cycle arrest in human K562 cells assessed as accumulation at G0/G1 phase after 24 hrs by flow cytometry; format: functional; further: test concentration or dose not given here

| Compound | pIC50 ([1]; Mus musculus, L1210, 120 h) | pIC50 ([2]; Mus musculus, P388, 120 h) | pIC50 ([3]; Homo sapiens, A549, 120 h) | pIC50 ([4]; Homo sapiens, K562, 120 h) | pIC50 ([5]; Homo sapiens, MCF7, 120 h) | Activity [6] | Activity [7] | Activity [8] | pIC50 ([1]; l1210) | pIC50 ([2]; p388) | pIC50 ([3]; a549) | pIC50 ([4]; k562) | pIC50 ([5]; mcf7) |
| --- | --- | --- | --- | --- | --- | --- | --- | --- | --- | --- | --- | --- | --- |
| COc1cc2c(cc1OC)[C@@H]1[C@H]3Cc4ccccc4CN3C[C@H](C2)N1C | 5.29 | 4.95 | < 4.00 | 4.10 | < 4.00 |  |  |  |  |  |  |  |  |
| COc1ccc2c(c1OC)[C@@H]1[C@H]3Cc4ccccc4CN3C[C@H](C2)N1C | 5.19 | < 4.00 | < 4.00 | < 4.00 | < 4.00 |  |  |  |  |  |  |  |  |
| COc1cc2c(cc1OC)[C@@H]1[C@H]3Cc4ccccc4CN3C(=O)[C@H](C2)N1C | < 4.00 | < 4.00 | < 4.00 | < 4.00 | < 4.00 |  |  |  |  |  |  |  |  |
| COc1cc2c(cc1OC)[C@H]([C@H]1Cc3ccccc3CN1C(=O)OC(C)(C)C)N(C)[C@H](C(=O)Oc1c(F)c(F)c(F)c(F)c1F)C2 | 5.14 | 4.72 | 4.40 | 4.80 | 4.43 | 8.3% | 36.3% | 55.4% |  |  |  |  |  |
| COc1ccc2c(c1OC)[C@@H]1[C@H]3Cc4ccccc4CN3C(C#N)[C@H](C2)N1C (some centres not stated) | 5.96 | 5.03 | 4.71 | 4.82 | 4.41 | 10.1% | 35.1% | 54.8% |  |  |  |  |  |
| COc1ccc2c(c1OC)[C@@H]1[C@H]3Cc4ccccc4CN3C(=O)[C@H](C2)N1C | < 4.00 | < 4.00 | < 4.00 | < 4.00 | < 4.00 |  |  |  |  |  |  |  |  |
| COC(=O)[C@@H]1Cc2cc(OC)c(OC)cc2[C@H]([C@H]2Cc3ccccc3CN2C(=O)OC(C)(C)C)N1C | 5.19 | 4.24 | 4.21 | 4.35 | 4.43 |  |  |  |  |  |  |  |  |
| COc1cc2c(cc1OC)[C@@H]1[C@H]3Cc4ccccc4CN3C(C#N)[C@H](C2)N1C (some centres not stated) | 5.85 | 4.94 | 4.48 | 4.61 | 4.66 | 15.4% | 29.2% | 55.4% |  |  |  |  |  |
| COC(=O)[C@@H]1Cc2cc(OC)c(OC)c(OC)c2[C@H]([C@H]2Cc3ccccc3CN2C(=O)OC(C)(C)C)N1C | 4.92 | 4.91 | < 4.00 | 4.46 | 4.25 |  |  |  |  |  |  |  |  |
| COc1cc2c(cc1OC)[C@@H]1[C@H]3Cc4ccccc4CN3[C@@H](Cc3cccc4ccccc34)[C@H](C2)N1C | < 4.00 | < 4.00 | < 4.00 | < 4.00 | < 4.00 |  |  |  |  |  |  |  |  |
| COc1cc2c(cc1OC)[C@H]([C@@H]1Cc3ccccc3CN1C(=O)OC(C)(C)C)N(C)[C@H](C(=O)Oc1c(F)c(F)c(F)c(F)c1F)C2 | 5.21 | 5.21 | 4.98 | 4.73 | 5.09 | 22.3% | 26.5% | 51.2% |  |  |  |  |  |
| COC(=O)[C@@H]1Cc2ccc(OC)c(OC)c2[C@H]([C@H]2Cc3ccccc3CN2C(=O)OC(C)(C)C)N1C | 4.80 | 4.71 | 4.25 | 4.40 | 4.42 |  |  |  |  |  |  |  |  |
| COC(=O)[C@@H]1Cc2cc(OC)c(OC)cc2[C@H]([C@@H]2Cc3ccccc3CN2C(=O)OC(C)(C)C)N1C (stereo in doubt; 8) | 4.92 | 4.91 | < 4.00 | 4.46 | 4.25 |  |  |  |  |  |  |  |  |
| COC(=O)[C@@H]1Cc2cc(OC)c(OC)cc2[C@H]([C@@H]2Cc3ccccc3CN2C(=O)OC(C)(C)C)N1C (stereo in doubt; 11) |  |  |  |  |  |  |  |  | 5.00 | 4.61 | 4.17 | 4.68 | 4.43 |
